In data set [1] the test system is Escherichia coli. Put plainly: Antibacterial activity against Escherichia coli ATCC 25922 assessed as inhibition of bacterial growth incubated for 20 hrs in presence of MgCl2 by broth microdilution method (reference value: 8 microM). It is filed as functional. For orientation: In broth dilution the organism is exposed to a series of concentrations in liquid medium.

Data set [2] concerns Escherichia coli. Put plainly: Antibacterial activity against Escherichia coli ATCC 25922 assessed as inhibition of bacterial growth incubated for 20 hrs in presence of KCl by broth microdilution method (reference value: 8 microM). It is filed as functional.
In data set [3] the test system is Escherichia coli. As to the kind of experiment: Antibacterial activity against Escherichia coli ATCC 25922 assessed as inhibition of bacterial growth incubated for 20 hrs in presence of NaCl by broth microdilution method (reference value: 8 microM). It is filed as functional.
A further data set relates to Klebsiella pneumoniae. Put plainly: Antibacterial activity against Klebsiella pneumoniae ATCC 700603 assessed as inhibition of bacterial growth incubated for 20 hrs by broth microdilution method. It is filed as functional.
Data set [4] in a line: Stability in mouse serum assessed as half life at 10 mM measured upto 24 hrs by RP-HPLC analysis. The format is ADME, cell-free.
For a further data set, the system named is Erythrocyte. As to the kind of experiment: Hemolytic activity in mouse erythrocytes assessed as 10% hemolysis incubated for 1 hr by absorbance based analysis. It is filed as toxicity, cell-based.
Data set [5] is described as follows: Therapeutic index, ratio of MHC10 for hemolytic activity in mouse erythrocytes preincubated with 10% mouse serum for 6 hrs to MIC for Escherichia coli ATCC 25922 preincubated with 10% mouse serum for 6 hrs. The format is toxicity, cell-based. The following applies: mouse erythrocytes, read-out: TI.
Data set [6] deals with Escherichia coli. As to the kind of experiment: Antibacterial activity against Escherichia coli ATCC 25922 assessed as inhibition of bacterial growth incubated for 20 hrs in presence of ZnCl2 by broth microdilution method (reference value: 8 microM). It is filed as functional.
Data set [7] relates to Staphylococcus aureus. As to the kind of experiment: Antibacterial activity against Staphylococcus aureus ATCC 25923 assessed as inhibition of bacterial growth incubated for 20 hrs by broth microdilution method. The format is functional.
Data set [8] has as its system Staphylococcus aureus. Put plainly: Antibacterial activity against Staphylococcus aureus ATCC 25923 assessed as inhibition of bacterial growth incubated for 20 hrs in presence of FeCl3 by broth microdilution method (reference value: 8 microM). It is filed as functional.
The test system of data set [9] is Staphylococcus aureus. Put plainly: Antibacterial activity against Staphylococcus aureus ATCC 25923 assessed as inhibition of bacterial growth incubated for 20 hrs in presence of KCl by broth microdilution method (reference value: 8 microM). The format is functional.
Data set [10] has as its system Escherichia coli. As to the kind of experiment: Antibacterial activity against Escherichia coli ATCC 25922 assessed as inhibition of bacterial growth incubated for 20 hrs by broth microdilution method. It is filed as functional.
Data set [11] has as its system Staphylococcus aureus. Put plainly: Antibacterial activity against Staphylococcus aureus ATCC 25923 assessed as inhibition of bacterial growth by measuring fold increase in MIC incubated for 20 hrs in presence of NaCl by broth microdilution method relative to control. The format is functional.
The subject of data set [12] is Escherichia coli. As to the kind of experiment: Antibacterial activity against Escherichia coli ATCC 25922 assessed as inhibition of bacterial growth preincubated with 10% mouse serum for 6 hrs and measured after 20 hrs by broth microdilution method. The format is functional. The note with it: time 26 hrs.
The test system of data set [13] is Staphylococcus aureus. Put plainly: Antibacterial activity against Staphylococcus aureus ATCC 25923 assessed as inhibition of bacterial growth incubated for 20 hrs in presence of NaCl by broth microdilution method (reference value: 8 microM). It is filed as functional.
The test system of data set [14] is Staphylococcus aureus. As to the kind of experiment: Antibacterial activity against Staphylococcus aureus ATCC 25923 assessed as inhibition of bacterial growth by measuring fold increase in MIC incubated for 20 hrs in presence of MgCl2 by broth microdilution method relative to control. It is filed as functional.
Data set [15] is described as follows: Therapeutic index, ratio of MHC10 for hemolytic activity in mouse erythrocytes preincubated with 10% mouse serum for 6 hrs to MIC for Staphylococcus aureus ATCC 25923 preincubated with 10% mouse serum for 6 hrs. The note with it: mouse erythrocytes, read-out: TI. The format is toxicity, cell-based.
The test system of data set [16] is Staphylococcus aureus. As to the kind of experiment: Antibacterial activity against Staphylococcus aureus ATCC 25923 assessed as inhibition of bacterial growth by measuring fold increase in MIC incubated for 20 hrs in presence of ZnCl2 by broth microdilution method relative to control. It is filed as functional.
In data set [17] the test system is Escherichia coli. Put plainly: Antibacterial activity against Escherichia coli ATCC 25922 assessed as inhibition of bacterial growth preincubated with 10% mouse serum for 1 hr and measured after 20 hrs by broth microdilution method. The format is functional. The following applies: time 21 hrs.
Data set [18] can be described thus: Hemolytic activity in mouse erythrocytes at 256 uM preincubated for 1 to 6 hr with 10% mouse serum and measured after 1 hr by absorbance based analysis. It is filed as toxicity, cell-based, Erythrocyte. The following applies: time 1-7 hrs, read-out: Activity.
Data set [19] is described as follows: Therapeutic index, ratio of MHC10 for hemolytic activity in mouse erythrocytes preincubated with 10% mouse serum for 1 hr to MIC for Escherichia coli ATCC 25922 preincubated with 10% mouse serum for 1 hr. The format is toxicity, cell-based. The following applies: mouse erythrocytes, read-out: TI.
Another data set has as its system Pseudomonas aeruginosa. As to the kind of experiment: Antibacterial activity against Pseudomonas aeruginosa ATCC 27853 assessed as inhibition of bacterial growth incubated for 20 hrs by broth microdilution method. It is filed as functional.
In data set [20] the test system is Staphylococcus aureus. As to the kind of experiment: Antibacterial activity against Staphylococcus aureus ATCC 25923 assessed as inhibition of bacterial growth incubated for 20 hrs in presence of ZnCl2 by broth microdilution method (reference value: 8 microM). It is filed as functional.
Data set [21] relates to Staphylococcus aureus. As to the kind of experiment: Antibacterial activity against Staphylococcus aureus ATCC 25923 assessed as inhibition of bacterial growth incubated for 20 hrs in presence of MgCl2 by broth microdilution method (reference value: 8 microM). It is filed as functional.
The nature of data set [22]: Therapeutic index, ratio of MHC10 for hemolytic activity in mouse erythrocytes preincubated with 10% mouse serum for 1 hr to MIC for Staphylococcus aureus ATCC 25923 preincubated with 10% mouse serum for 1 hr. It is filed as toxicity, cell-based. The following applies: mouse erythrocytes, read-out: TI.
The subject of the next data set is Acinetobacter baumannii. Put plainly: Antibacterial activity against Acinetobacter baumannii ATCC 19606 assessed as inhibition of bacterial growth incubated for 20 hrs by broth microdilution method. The format is functional.
Data set [23] has as its system Escherichia coli. Put plainly: Antibacterial activity against Escherichia coli ATCC 25922 assessed as inhibition of bacterial growth incubated for 20 hrs in presence of FeCl3 by broth microdilution method (reference value: 8 microM). It is filed as functional.
In data set [24] the test system is Staphylococcus aureus. Put plainly: Antibacterial activity against Staphylococcus aureus ATCC 25923 assessed as inhibition of bacterial growth preincubated with 10% mouse serum for 6 hrs and measured after 20 hrs by broth microdilution method. The following applies: time 21 hrs. The format is functional.
In the next data set the test system is Bacillus subtilis. As to the kind of experiment: Antibacterial activity against Bacillus subtilis ATCC 23857 assessed as inhibition of bacterial growth incubated for 20 hrs by broth microdilution method. It is filed as functional.
Data set [25] is described as follows: Cytotoxicity against HEK293T cells assessed as cell death measured after 1 hr by resazurin dye based analysis. The format is toxicity, HEK-293T. The following applies: human, HEK293T cells. In general terms: Resazurin is reduced to fluorescent resorufin, in cell work by metabolically active cells.
In data set [26] the test system is Staphylococcus aureus. As to the kind of experiment: Antibacterial activity against Staphylococcus aureus ATCC 25923 assessed as inhibition of bacterial growth by measuring fold increase in MIC incubated for 20 hrs in presence of KCl by broth microdilution method relative to control. It is filed as functional.
Data set [27] has as its system Staphylococcus aureus. Put plainly: Antibacterial activity against Staphylococcus aureus ATCC 25923 assessed as inhibition of bacterial growth preincubated with 10% mouse serum for 1 hr and measured after 20 hrs by broth microdilution method. The format is functional. The following applies: time 21 hrs.
The test system of data set [28] is Staphylococcus aureus. Put plainly: Antibacterial activity against Staphylococcus aureus ATCC 25923 assessed as inhibition of bacterial growth by measuring fold increase in MIC incubated for 20 hrs in presence of FeCl3 by broth microdilution method relative to control. The format is functional.
The test system of data set [29] is Staphylococcus aureus. Put plainly: Drug resistance, ratio of MIC for Staphylococcus aureus after 14 to 19 passages to MIC for Staphylococcus aureus after initial exposure. It is filed as functional, organism-based.
Data set [30] relates to Escherichia coli. As to the kind of experiment: Resistant development in Escherichia coli assessed as increase in MIC at sub-MIC measured after 20 passages. It is filed as functional, organism-based.
For data set [31], the system named is Escherichia coli. Put plainly: Drug resistance, ratio of MIC for Escherichia coli after 14 to 19 passages to MIC for Escherichia coli after initial exposure. It is filed as functional, organism-based.

Values after ≈ are worked out from the molar mass of the structure shown. Active and inactive are the calls of the source. Where a SMILES comes first, the peptide text is derived from it. Side-chain parts run from the residue outwards.

The MIC is the smallest concentration in the dilution series that meets the test's criterion for growth inhibition. One may read the half-life as the time in which the quantity being followed falls by half. Usually CC50 stands for the concentration giving 50% cytotoxicity. On to `N=C(N)NCCC[C@H](NC(=O)[C@H](CCCNC(=N)N)NC(=O)[C@H](CCCNC(=N)N)NC(=O)[C@H](CCCNC(=N)N)NC(=O)[C@H](CCCCNC(=O)[C@H](Cc1c[nH]c2ccccc12)NC(=O)[C@@H](N)Cc1c[nH]c2ccccc12)NC(=O)[C@H](Cc1c[nH]c2ccccc12)NC(=O)[C@@H](N)Cc1c[nH]c2ccccc12)C(N)=O` (H-WWK([Trp-Trp])RRRR-NH2), for which the MIC in the data set with Escherichia coli [1] was found to be 8 µM; in the data set with Escherichia coli [2], 8 µM; in the data set with Escherichia coli [3] it was 16 µM; in the data set with Klebsiella pneumoniae it was 128 µM (≈ 194 µg/mL); with Escherichia coli [6] it was 8 µM; with Staphylococcus aureus [7], 8 µM (≈ 12.1 µg/mL). Also, the MIC is 8 µM with Staphylococcus aureus [8]; 8 µM in the data set on Staphylococcus aureus [9]; 8 µM (≈ 12.1 µg/mL) in the data set with Escherichia coli [10]; 16 µM (≈ 24.2 µg/mL) with Escherichia coli [12]; 8 µM in the data set with Staphylococcus aureus [13]; 2 µM (≈ 3.03 µg/mL) with Escherichia coli [17]. Moreover, the MIC in the data set on Pseudomonas aeruginosa worked out at 32 µM (≈ 48.5 µg/mL); with Staphylococcus aureus [20], 8 µM; with Staphylococcus aureus [21] it was 8 µM; in the data set with Acinetobacter baumannii, 64 µM (≈ 96.9 µg/mL); in the data set on Escherichia coli [23], 8 µM; with Staphylococcus aureus [24], 8 µM (≈ 12.1 µg/mL). Also, the MIC in the data set with Bacillus subtilis came to 8 µM (≈ 12.1 µg/mL); in the data set on Staphylococcus aureus [27], 2 µM (≈ 3.03 µg/mL). Moreover, the half-life at 10000 µM in data set [4] stood at 32.4 min. For the same compound, in the data set on Erythrocyte, the MHC10 is over 256 µM. Also, the selectivity ratio amounted to 0.06 in data set [5], 0.13 in data set [15], 0.5 in data set [19] and 0.5 in data set [22]. Besides, the “fold change (FC)” value in the data set on Staphylococcus aureus [11], in the data set with Staphylococcus aureus [14], with Staphylococcus aureus [16], in the data set on Staphylococcus aureus [26] and in the data set with Staphylococcus aureus [28] was “<=2” each time. Moreover, in [18], the hemolysis at 1 h, 256 µM is under 10%. In addition, in data set [25], the 50% cytotoxic concentration (CC50) at 1 h is over 128 µM.

For the compound GENTAMICIN, the Ratio in the data set with Staphylococcus aureus [29] and in the data set on Escherichia coli [31] was 32 in each case. Also, the result in the data set with Escherichia coli [30] was Active.

For the origin of these results see ChEMBL document CHEMBL5500371, “Arginine and tryptophan-rich dendritic antimicrobial peptides that disrupt membranes for bacterial infection in vivo” (Eur J Med Chem, 2024).
